Key:
Assay type in all cases: in vivo
[1] = tested on: boll weevil (Anthonomus grandis); assay: Boll weevil (Anthonomus grandis), insect diet with eggs in 24-well plates; conditions: 120 h, egg and larval mortality, 5 days, read-out: mortality in comparison with untreated controls
Method: B.4 Boll Weevil (Anthonomus grandis)
For evaluating control of boll weevil (Anthonomus grandis) the test unit consisted of 24-well-microtiter plates containing an insect diet and 20-30 A. grandis eggs.
The compounds were formulated using a solution containing 75% v/v water and 25% v/v DMSO. Different concentrations of formulated compounds were sprayed onto the insect diet at 20 μl, using a custom built micro atomizer, at two replications.
After application, microtiter plates were incubated at about 23±1° C. and about 50±5% relative humidity for 5 days. Egg and larval mortality was then visually assessed.

[2] = tested on: Rice Green Leafhopper (Nephotettix virescens); assay: Rice green leafhopper (Nephotettix virescens), sprayed potted rice seedlings; conditions: adults, after 72 hours, read-out: mortality in comparison with untreated controls
Method: B.8 Rice Green Leafhopper (Nephotettix virescens)
Rice seedlings were cleaned and washed 24 hours before spraying. The active compounds were formulated in 1:1 acetone:water (vol:vol), and 0.01% vol/vol surfactant (Kinetic HV) was added. Potted rice seedlings were sprayed with 5-6 ml test solution, air dried, covered with Mylar cages and inoculated with 10 adults. Treated rice plants were kept at about 28-29° C. and relative humidity of about 50-60%. Percent mortality was recorded after 72 hours.

[3] = tested on: Diamond Back Moth (Plutella Xylostella); assay: Diamond back moth (Plutella xylostella), cabbage leaf dip, 3rd instar larvae; conditions: foliar, 72 hours after treatment, read-out: mortality in comparison with untreated controls
Method: B.6 Diamond Back Moth (Plutella Xylostella)
The active compound was dissolved at the desired concentration in a mixture of 1:1 (vol:vol) distilled water:aceteone. Surfactant (Kinetic HV) was added at a rate of 0.01% (vol/vol). The test solution was prepared at the day of use.
Leaves of cabbage were dipped in test solution and air-dried. Treated leaves were placed in petri dishes lined with moist filter paper and inoculated with ten 3rd instar larvae. Mortality was recorded 72 hours after treatment. Feeding damages were also recorded using a scale of 0-100%.

[4] = tested on: vetch aphid (Megoura viciae); assay: Vetch aphid (Megoura viciae), contact or systemic, broad bean leaf disks in 24-well plates; conditions: foliar, 120 h, adult aphids on sprayed leaf disks, 5 days, read-out: mortality in comparison with untreated controls
Method: B.2 Vetch Aphid (Megoura viciae)
For evaluating control of vetch aphid (Megoura viciae) through contact or systemic means the test unit consisted of 24-well-microtiter plates containing broad bean leaf disks.
The compounds were formulated using a solution containing 75% v/v water and 25% v/v DMSO. Different concentrations of formulated compounds were sprayed onto the leaf disks at 2.5 μl, using a custom built micro atomizer, at two replications.
After application, the leaf disks were air-dried and 5-8 adult aphids placed on the leaf disks inside the microtiter plate wells. The aphids were then allowed to suck on the treated leaf disks and incubated at about 23±1° C. and about 50±5% relative humidity for 5 days. Aphid mortality and fecundity was then visually assessed.

[5] = tested on: green peach aphid (Myzus persicae); assay: Green peach aphid (Myzus persicae), systemic, 96-well plates with liquid artificial diet under membrane; conditions: 72 h, adult aphids on treated diet, 3 days, read-out: mortality in comparison with untreated controls
Excerpt: B.1 Green Peach Aphid (Myzus persicae)
For evaluating control of green peach aphid (Myzus persicae) through systemic means the test unit consisted of 96-well-microtiter plates containing liquid artificial diet under an artificial membrane.
The compounds were formulated using a solution containing 75% v/v water and 25% v/v DMSO. Different concentrations of formulated compounds were pipetted into the aphid diet, using a custom built pipetter, at two replications.
After application, 5-8 adult aphids were placed on the artificial membrane inside the microtiter plate wells. The aphids were then allowed to suck on the treated aphid diet and incubated at about 23±1° C. and about 50±5% relative humidity for 3 days. Aphid mortality and fecundity was then visually assessed.

[6] = tested on: Orchid Thrips (Dichromothrips Corbetti); assay: Orchid thrips (Dichromothrips corbetti), floral-immersion technique; conditions: adult thrips, 72 hours after treatment, read-out: mortality in comparison with untreated controls
Method: B.7 Orchid Thrips (Dichromothrips Corbetti)
Dichromothrips corbetti adults used for bioassay were obtained from a colony maintained continuously under laboratory conditions. For testing purposes, the test compound was diluted in a 1:1 mixture of acetone:water (vol:vol), plus Kinetic HV at a rate of 0.01% v/v.
Thrips potency of each compound was evaluated by using a floral-immersion technique. All petals of individual, intact orchid flowers were dipped into treatment solution and allowed to dry in Petri dishes. Treated petals were placed into individual re-sealable plastic along with about 20 adult thrips. All test arenas were held under continuous light and a temperature of about 28° C. for duration of the assay. After 3 days, the numbers of live thrips were counted on each petal. The percent mortality was recorded 72 hours after treatment.

[7] = tested on: tobacco budworm (Heliothis virescens); assay: Tobacco budworm (Heliothis virescens), insect diet with eggs in 96-well plates; conditions: 120 h, egg and larval mortality, 5 days, read-out: mortality in comparison with untreated controls
Method: B.3 Tobacco Budworm (Heliothis virescens)
For evaluating control of tobacco budworm (Heliothis virescens) the test unit consisted of 96-well-microtiter plates containing an insect diet and 15-25 H. virescens eggs.
The compounds were formulated using a solution containing 75% v/v water and 25% v/v DMSO. Different concentrations of formulated compounds were sprayed onto the insect diet at 10 μl, using a custom built micro atomizer, at two replications.
(§1) After application, microtiter plates were incubated at about 28±1° C. and about 80±5% relative humidity for 5 days. Egg and larval mortality was then visually assessed.

[8] = tested on: Red Spider Mite (Tetranychus kanzawai); assay: Red spider mite (Tetranychus kanzawai), sprayed potted cowpea beans; conditions: 72 hours after treatment, read-out: mortality in comparison with untreated controls
Method: B.9 Red Spider Mite (Tetranychus kanzawai)
The active compound was dissolved at the desired concentration in a mixture of 1:1 (vol:vol) distilled water:acetone. Surfactant (Kinetic HV) was added at a rate of 0.01% (vol/vol). The test solution was prepared at the day of use.
Potted cowpea beans of 4-5 days of age were cleaned with tap water and sprayed with 1-2 ml of the test solution using air driven hand atomizer. The treated plants were allowed to air dry and afterwards inoculated with 30 or more mites by clipping a cassava leaf section from rearing population. Treated plants were placed inside a holding room at about 25-27° C. and about 50-60% relative humidity. Percent mortality was assessed 72 hours after treatment.

[9] = tested on: Mediterranean fruitfly (Ceratitis capitata); assay: Mediterranean fruitfly (Ceratitis capitata), insect diet with eggs in microtiter plates; conditions: 120 h, egg and larval mortality, 5 days, read-out: mortality in comparison with untreated controls
Method: B.5 Mediterranean Fruitfly (Ceratitis capitata)
For evaluating control of Mediterranean fruitfly (Ceratitis capitata) the test unit consisted of microtiter plates containing an insect diet and 50-80 C. capitata eggs.
The compounds were formulated using a solution containing 75% v/v water and 25% v/v DMSO. Different concentrations of formulated compounds were sprayed onto the insect diet at 5 μl, using a custom built micro atomizer, at two replications.
as §1

O=C(NC1CS(=O)(=O)C1)c1ccc(C2=CC(c3cc(Cl)cc(Cl)c3)(C(F)(F)F)CC2)cc1Cl (stereo not shown) [Compound 1-11, 2-Chloro-4-[3-(3,5-dichlorophenyl)-3-(trifluoromethyl)cyclopenten-1-yl]-N-(1,1-dioxothietan-3-yl)benzamide]
≥ 75%: mortality at 2500 ppm [1] | mortality at 500 ppm [2] | mortality at 500 ppm [3] | mortality at 2500 ppm [4] | mortality at 2500 ppm [5] | mortality at 500 ppm [6] | mortality at 2500 ppm [7] | mortality at 500 ppm [8] | mortality at 2500 ppm [9]

O=C(O)c1ccc(C2=CC(c3cc(Cl)cc(Cl)c3)(C(F)(F)F)CC2)cc1Cl (stereo not shown) [Compound 1-12, 2-Chloro-4-[3-(3,5-dichlorophenyl)-3-(trifluoromethyl)cyclopenten-1-yl]benzoic acid]
≥ 75%: mortality at 2500 ppm [1]

COC(=O)c1ccc(C2=CC(c3cc(Cl)cc(Cl)c3)(C(F)(F)F)CC2)cc1Cl (stereo not shown) [Compound 1-13, Methyl 2-chloro-4-[3-(3,5-dichlorophenyl)-3-(trifluoromethyl)cyclopenten-1-yl]-benzoate]
≥ 75%: mortality at 2500 ppm [1] | mortality at 500 ppm [3]

O=C(NC1CS(=O)(=O)C1)c1ccc(C2=CC(c3cc(Cl)cc(Cl)c3)(C(F)(F)F)C=C2)cc1Cl (stereo not shown) [Compound 2-12, 2-Chloro-4-[3-(3,5-dichlorophenyl)-3-(trifluoromethyl)cyclopenta-1,4-dien-1-yl]-N-(1,1-dioxothietan-3-yl)benzamide]
≥ 75%: mortality at 2500 ppm [1] | mortality at 500 ppm [2] | mortality at 500 ppm [3] | mortality at 2500 ppm [4] | mortality at 2500 ppm [5] | mortality at 500 ppm [6] | mortality at 2500 ppm [7] | mortality at 500 ppm [8] | mortality at 2500 ppm [9]

O=C(NC1CS(=O)(=O)C1)c1ccc(C2=CCC(c3cc(Cl)cc(Cl)c3)(C(F)(F)F)C2)cc1Cl (stereo not shown) [Compound 3-9, 2-Chloro-4-[4-(3,5-dichlorophenyl)-4-(trifluoromethyl)cyclopenten-1-yl]-N-(1,1-dioxothietan-3-yl)benzamide]
≥ 75%: mortality at 2500 ppm [1] | mortality at 500 ppm [2] | mortality at 500 ppm [3] | mortality at 2500 ppm [4] | mortality at 2500 ppm [5] | mortality at 500 ppm [6] | mortality at 2500 ppm [7] | mortality at 500 ppm [8] | mortality at 2500 ppm [9]

O=C(O)c1ccc(C2=CCC(c3cc(Cl)cc(Cl)c3)(C(F)(F)F)C2)cc1Cl (stereo not shown) [Compound 3-11, 2-Chloro-4-[4-(3,5-dichlorophenyl)-4-(trifluoromethyl)cyclopenten-1-yl]benzoic acid]
≥ 75%: mortality at 2500 ppm [1]

— patent publication US10407383B2, “Cyclopentene and cyclopentadiene compounds for controlling invertebrate pests” (BASF SE, priority 2014, dated 2019)
